Consider ten compounds from ChEMBL document CHEMBL1201862, “PubChem BioAssay data set” (2004).

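How tested: cells in 96-well plates exposed to compound for 48 hours at five concentrations. GI50 marks 50% less growth.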 Active and inactive are the calls of the source. Rule as the data show it: active = GI50 up to about 1.1 µM and inactive = higher.

Some test systems named below: CCRF-CEM; COLO 205; EKVX; LOX IMVI; MOLT-4; Malme-3M; NCI-H23; NCI-H460; OVCAR-3; OVCAR-4; OVCAR-8; SF-295; SF-539; SK-OV-3; SN12C; SNB-19; SNB-75; U-251; UACC-257; UO-31.
Holding throughout (experiment): NCI tumour cell line growth inhibition, 48 h

With `CCOC(=O)C1=C(C)N(C2OC(COC(C)=O)C(OC(C)=O)C(OC(C)=O)C2OC(C)=O)C(=O)NC1c1ccccc1` (stereo not given), the GI50 in the test with CCRF-CEM is 44.9 µM (inactive); with COLO 205, > 100 µM (inactive); with EKVX, > 100 µM (inactive); in the test with LOX IMVI it was > 100 µM (inactive); in the test on MOLT-4 it was 99.1 µM (inactive); in the test on Malme-3M, > 100 µM (inactive). For the same compound, the GI50 in the test with NCI-H23, in the test with NCI-H460, with OVCAR-3, with OVCAR-4, in the test on OVCAR-8 and in the test with SF-295 was > 100 µM (inactive) throughout. For the same compound, the GI50 is > 100 µM (inactive) in the test with SF-539; > 100 µM (inactive) in the test on SK-OV-3; > 100 µM (inactive) in the test with SN12C; > 100 µM (inactive) in the test on SNB-19; 55 µM (inactive) with SNB-75; > 100 µM (inactive) in the test with U-251. Besides, the GI50 with UACC-257 and in the test on UO-31 was > 100 µM (inactive) each time.
As for `CSc1cc(=O)n2c3ccccc3c3ccnc1c32`, the GI50 is > 100 µM (inactive) with CCRF-CEM; > 100 µM (inactive) with COLO 205; 24.4 µM (inactive) with EKVX; > 100 µM (inactive) in the test with LOX IMVI; > 100 µM (inactive) in the test on MOLT-4; > 86.7 µM (inactive) in the test on Malme-3M. Moreover, the GI50 was > 100 µM (inactive) in the test on NCI-H23; 57 µM (inactive) with NCI-H460; > 100 µM (inactive) in the test with OVCAR-3; > 100 µM (inactive) in the test with OVCAR-4; > 67.9 µM (inactive) with OVCAR-8; > 65.2 µM (inactive) in the test on SF-295. For the same compound, the GI50 was > 50 µM (inactive) in the test on SF-539; 25.6 µM (inactive) in the test on SK-OV-3; > 100 µM (inactive) in the test on SN12C; > 64.3 µM (inactive) in the test on SNB-19; > 69.3 µM (inactive) in the test on SNB-75; > 55.6 µM (inactive) in the test with U-251. The GI50 is > 54.5 µM (inactive) in the test on UACC-257 and 45.6 µM (inactive) in the test with UO-31.
`CNNC1=NS(=O)(=O)c2cc(C)c(Cl)cc2S1`: the GI50 in the test with CCRF-CEM, with COLO 205, in the test on EKVX, with LOX IMVI, in the test with MOLT-4 and with Malme-3M was > 10 µM (inactive) throughout. The GI50 in the test with NCI-H23, with NCI-H460, in the test on OVCAR-3, with OVCAR-4, in the test on OVCAR-8 and in the test on SF-295 was > 10 µM (inactive) in each case. In addition, the GI50 in the test with SF-539, with SK-OV-3, in the test with SN12C, in the test with SNB-19, in the test with SNB-75 and with U-251 was > 10 µM (inactive) each time. In addition, the GI50 in the test on UACC-257 is > 10 µM (inactive); in the test with UO-31, 0.0344 µM (active).
`CC(C(=O)O)c1cnn(-c2ccccc2)c1-n1cccc1` (stereo not given): the GI50 in the test with CCRF-CEM, in the test on COLO 205, in the test with EKVX, in the test with LOX IMVI, in the test on MOLT-4 and with Malme-3M was > 100 µM (inactive) throughout. In addition, the GI50 in the test on NCI-H23 is > 100 µM (inactive); in the test on NCI-H460, > 100 µM (inactive); in the test with OVCAR-3, > 63.7 µM (inactive); with OVCAR-4 it was > 100 µM (inactive); in the test with OVCAR-8 it was > 100 µM (inactive); in the test with SF-295, > 100 µM (inactive). Further, the GI50 with SF-539, in the test with SK-OV-3, in the test on SN12C, in the test with SNB-19, with SNB-75 and with U-251 was > 100 µM (inactive) each time. Besides, the GI50 in the test on UACC-257 and in the test with UO-31 was > 100 µM (inactive) each time.
Regarding `COc1ccccc1/C=C1\Sc2scc(-c3cccc([N+](=O)[O-])c3)[n+]2C1=O`, the GI50 with CCRF-CEM is 0.476 µM (active); in the test on COLO 205, 2.11 µM (inactive); in the test with EKVX it was 11.4 µM (inactive); in the test with LOX IMVI, 1.71 µM (inactive); with MOLT-4 it was 1.28 µM (inactive); in the test with Malme-3M it was 3.3 µM (inactive). The GI50 in the test on NCI-H23 is 10.4 µM (inactive); with NCI-H460, 13.2 µM (inactive); in the test on OVCAR-3, 9.75 µM (inactive); in the test on OVCAR-4, 13.3 µM (inactive); in the test on OVCAR-8, 7.19 µM (inactive); with SF-295, 17.5 µM (inactive). In addition, the GI50 in the test on SF-539 is 1.62 µM (inactive); in the test with SK-OV-3, 13.2 µM (inactive); in the test with SN12C, 2.88 µM (inactive); in the test on SNB-19, 12.1 µM (inactive); in the test on SNB-75 it was 12.8 µM (inactive); in the test on U-251, 14.9 µM (inactive). Besides, the GI50 with UACC-257 is 7.11 µM (inactive); in the test with UO-31, 2.86 µM (inactive).
Take `CCCCc1ccc(N2C(=O)c3cc([N+](=O)[O-])cnc3S2(=O)=O)cc1`: the GI50 is > 10 µM (inactive) with CCRF-CEM; > 100 µM (inactive) with COLO 205; > 100 µM (inactive) in the test with EKVX; 61.7 µM (inactive) in the test with LOX IMVI; > 100 µM (inactive) in the test on MOLT-4; > 100 µM (inactive) in the test with Malme-3M. The GI50 with NCI-H23 was > 100 µM (inactive); in the test with NCI-H460 it was > 100 µM (inactive); in the test with OVCAR-3, > 100 µM (inactive); in the test with OVCAR-4, > 100 µM (inactive); in the test on OVCAR-8, > 100 µM (inactive); in the test with SF-295 it was 47.2 µM (inactive). The GI50 with SF-539 was > 100 µM (inactive); in the test with SK-OV-3, > 100 µM (inactive); in the test on SN12C it was > 100 µM (inactive); in the test with SNB-19, 52.1 µM (inactive); in the test with SNB-75, > 100 µM (inactive); in the test on U-251, 31.8 µM (inactive). The GI50 in the test on UACC-257 and in the test with UO-31 was > 100 µM (inactive) throughout.
As to `CCOC(=O)c1c(CN2CCNCC2)nc2ccccc2c1-c1ccccc1`, the GI50 in the test with CCRF-CEM is 12.7 µM (inactive); in the test with COLO 205, 14.3 µM (inactive); in the test on EKVX it was 15.5 µM (inactive); with LOX IMVI, 15.8 µM (inactive); in the test with MOLT-4, 10.8 µM (inactive); in the test with Malme-3M, 10.2 µM (inactive). Also, the GI50 in the test on NCI-H23 is 18.7 µM (inactive); in the test on NCI-H460 it was 14.3 µM (inactive); with OVCAR-3 it was 17.5 µM (inactive); in the test with OVCAR-4, 15 µM (inactive); in the test with OVCAR-8, 15.8 µM (inactive); in the test with SF-295 it was 15.1 µM (inactive). Besides, the GI50 in the test with SF-539 is 16.8 µM (inactive); in the test with SK-OV-3 it was 16.5 µM (inactive); in the test with SN12C, 14.7 µM (inactive); in the test with SNB-19, 17.5 µM (inactive); in the test on SNB-75, 7.03 µM (inactive); in the test on U-251 it was 14.3 µM (inactive). Moreover, the GI50 with UACC-257 was 4.07 µM (inactive); with UO-31, 7.28 µM (inactive).
As for `COc1ccc(CCN(C)C2CCC(C#N)(c3ccc(OC)c(OC)c3)CC2)cc1OC` (stereo not given), the GI50 in the test on CCRF-CEM is > 100 µM (inactive); in the test with COLO 205, 26.7 µM (inactive); with EKVX, > 100 µM (inactive); in the test with LOX IMVI, > 100 µM (inactive); in the test with MOLT-4 it was > 100 µM (inactive); in the test on Malme-3M it was > 100 µM (inactive). The GI50 in the test with NCI-H23, in the test on NCI-H460, with OVCAR-3, in the test with OVCAR-4, with OVCAR-8 and with SF-295 was > 100 µM (inactive) each time. Besides, the GI50 in the test on SF-539, in the test with SK-OV-3, in the test on SN12C, in the test on SNB-19, with SNB-75 and in the test on U-251 was > 100 µM (inactive) throughout. For the same compound, the GI50 with UACC-257 and with UO-31 was > 100 µM (inactive) throughout.
With `Cc1occc1C(=S)Nc1ccc(Cl)c(C(=O)OCC(C)C)c1`, the GI50 with CCRF-CEM was 26.5 µM (inactive); in the test on COLO 205 it was 16.3 µM (inactive); in the test on EKVX it was 15.6 µM (inactive); in the test on LOX IMVI it was 14.9 µM (inactive); with MOLT-4, 11.5 µM (inactive); in the test with Malme-3M, 19.3 µM (inactive). In addition, the GI50 is 17.1 µM (inactive) in the test with NCI-H23; 22.3 µM (inactive) in the test on NCI-H460; 22.4 µM (inactive) with OVCAR-3; 13.3 µM (inactive) with OVCAR-4; 15.8 µM (inactive) in the test with OVCAR-8; 16.6 µM (inactive) in the test with SF-295. The GI50 in the test on SF-539 was 22.3 µM (inactive); with SK-OV-3 it was 20.9 µM (inactive); in the test on SN12C, 16.8 µM (inactive); in the test with SNB-19, 17.1 µM (inactive); in the test with SNB-75, 15.3 µM (inactive); in the test on U-251, 17.6 µM (inactive). Also, the GI50 in the test on UACC-257 is 17.9 µM (inactive); in the test with UO-31, 17.7 µM (inactive).
For `O=C1C(CO)=C[C@H](O)[C@H]2O[C@@H]12`, the GI50 was 74.8 µM (inactive) with CCRF-CEM; 111 µM (inactive) in the test on COLO 205; 121 µM (inactive) with EKVX; 136 µM (inactive) in the test on LOX IMVI; 133 µM (inactive) in the test with MOLT-4; 137 µM (inactive) in the test with Malme-3M. For the same compound, the GI50 in the test with NCI-H23 was 238 µM (inactive); with NCI-H460 it was 199 µM (inactive); in the test with OVCAR-3 it was 177 µM (inactive); in the test on OVCAR-4, 130 µM (inactive); in the test with OVCAR-8, 137 µM (inactive); in the test on SF-295, 84.9 µM (inactive). Besides, the GI50 is 242 µM (inactive) in the test on SF-539; 330 µM (inactive) in the test on SK-OV-3; 128 µM (inactive) with SN12C; 419 µM (inactive) in the test on SNB-19; 335 µM (inactive) in the test with SNB-75; 171 µM (inactive) with U-251. In addition, the GI50 was 158 µM (inactive) in the test on UACC-257 and 267 µM (inactive) in the test on UO-31.
